# Assays:
# [1] = Dissolution of compounds in PEG-12 Glyceryl Dioleate; format: physicochemical; settings: for Dissolution in PEG-12 Glyceryl Dioleate (observation): before addition of water
# Description: It will be appreciated that, while liposomes form spontaneously at the temperature of formation, cooling of liposomes after formation results in liposomes in trapped kinetic states. To minimize distortions in liposome structure upon such cooling, sterols such as cholesterol may be mixed with the lipid before liposome formation. It has been observed that cholesterol may be dissolved in PEG-12 GDO at up to about 10 percent by weight.
# Methotrexate (Sigma) was dissolved in PEG-12 Glyceryl Dioleate and gently mixed for about 5 minutes. […] Deionized water was slowly added to the solution and gently mixed. The resultant mixture was a yellow, opaque solution.
# Tretinoin (all-trans retinoic acid), 6 mg, was dissolved in 500 ul of PEG-12 Glyceryl Dioleate. […] Distilled water, 4.5 ml, was added to the mixture and gently mixed. This yielded a concentration of […]. […] This solution can easily be incorporated into a cream, gel or lotion dosage form.
# [2] = Spontaneous liposome formation of single lipids mixed with aqueous solution; format: physicochemical
# Description: Lipids were tested at 2 weight percent in aqueous solution. Note that GDL means glycerol dilaurate, GDO means glycerol dioleate, GDM means glycerol dimyristate, GDP means glycerol dipalmitate, and GDS means glycerol distearate. For each lipid, the number after “PEG” indicates the numbers of C2H4O subunits in the PEG chain. The unsaturated dioleate lipids have similar packing parameters to the saturated dimyristate lipids.
# Single lipids were tested for their ability to spontaneously form liposomes when mixed with an aqueous solution. PEG-12 GDO was obtained from Global 7 (New Jersey). All other lipids were synthesized for the experiment. For each experiment, water and lipid were separately equilibrated at the appropriate temperature. Two weight percent lipid was added to the aqueous solution, and the solution was analyzed for the presence of liposomes by optical light microscopy, cryo TEM, freeze fracture TEM, or hot stage microscopy.
compound,measurement,setting,value
CN(Cc1cnc2nc(N)nc(N)c2n1)c1ccc(C(=O)N[C@@H](CCC(=O)O)C(=O)O)cc1 [Methotrexate],Dissolution in PEG-12 Glyceryl Dioleate (observation),[1],clear solution
CC1=C(/C=C/C(C)=C/C=C/C(C)=C/C(=O)O)C(C)(C)CCC1 [Tretinoin],Dissolution in PEG-12 Glyceryl Dioleate (observation),[1],Dissolution was complete
CC(C)CCC[C@@H](C)[C@H]1CC[C@H]2[C@@H]3CC=C4C[C@@H](O)CC[C@]4(C)[C@H]3CC[C@]12C [cholesterol],Amount dissolved in PEG-12 GDO,[1]; in PEG-12 GDO,up to 10 percent by weight
PEG-12 Glyceryl Dioleate [PEG-12 GDO],Spontaneous Liposomes at 20° C.,"[2]; 2 weight percent lipid in aqueous solution, 20° C.",YES
same,Spontaneous Liposomes at 37° C.,"[2]; 2 weight percent lipid in aqueous solution, 37° C.",YES
same,Spontaneous Liposomes at 60° C.,"[2]; 2 weight percent lipid in aqueous solution, 60° C.",YES
same,Spontaneous liposome formation,"[2]; all temperatures tested (20, 37, 60° C.)",spontaneously forms liposomes at all temperatures tested

# — US7718190B2, “Self forming, thermodynamically stable liposomes and their applications” (priority 2000, dated 2010)
